Data set [1] in a line: Micelle hydrodynamic diameter of E5564 through NaOH dissolution, lactose phosphate buffer, freeze-drying and re-hydration. As to conditions: upon freeze-drying.
Source text: This solution was then combined with a lactose containing phosphate buffer solution to yield a solution pH of 7-8. […] This solution was then filtered through a 0.2 μm filter to render the solution sterile in the manner conventional to pharmaceutical manufacturing. The sterile solution was then filled into vials and freeze-dried.
A short description of data set [2]: E5564 micelle hydrodynamic diameter before and after simulated I.V. infusion using administration equipment (DLS). As to conditions: simulated administration conditions using representative infusion equipment.
Source text: The following conditions apply to the data in Table 4: Microbore 60″ extension set with PVC free fluid path, No. V6212 (McGraw, Inc.); 3 cc syringe with Luer Lok, No. 309585 (Becton Dickenson); Injection site with Luer Lok, No. 2N1199 (Baxter); Needle, 20G 1, No. 305175 (Becton Dickenson); I.V. catheter, JELCO, No. 4050 (Johnson & Johnson Medical Inc.).
The nature of data set [3]: Micelle hydrodynamic diameter of E5564 before lyophilization and after reconstitution, admixture and storage.
Source text: After lyophilization the micelles were reconstituted with water diluted in an aqueous dextrose solution (Table 2). […] (Table 2).

“And” between values parts separate entries of the source, which are not always exact repeats. Equal entries are not always repeated.

Consider `CCCCCC/C=C\CCCCCCCCCC(=O)N[C@H]1[C@H](OC[C@H]2O[C@H](OP(=O)(O)O)[C@H](NC(=O)CC(=O)CCCCCCCCCCC)[C@@H](OCCCCCCCCCC)[C@@H]2O)OC(COC)[C@@H](OP(=O)(O)O)[C@@H]1OCC[C@@H](CCCCCCC)OC` (stereo partly shown) [Compound E5564], for which the “micelle hydrodynamic diameter stability” value in data set [1] is “stable”; in data set [2], “stable”; in data set [3] ([…], or under refrigeration) it was “stable”. For the same molecule, the “hydrodynamic diameter (nm)” value was 8.1 nm in data set [3] (admixed with 5% dextrose solution (0.14 mg/mL), storage for 24 hours at 25° C.); 7.7 nm in data set [3] (admixed with 5% dextrose solution (0.14 mg/mL), storage for 72 hours at 2-8° C.); 7.7 nm and 6.8 nm in data set [3] (immediately following admixture with 5% dextrose solution (0.14 mg/mL)); 8.6 nm and 7.7 nm and 6.9 nm in data set [3] (immediately following reconstitution (0.5 mg/mL)); 8.2 nm in data set [3] (reconstituted solution (0.5 mg/mL), storage for 24 hours at 25° C.); 8.3 nm in data set [3] (reconstituted solution (0.5 mg/mL), storage for 72 hours at 2-8° C.). Besides, the “hydrodynamic diameter (nm)” value in data set [3] (reconstituted solution after storage of lyophilized drug product 6 months at 2-8° C.) is 7.5 nm; in data set [3] (reconstituted solution after storage of lyophilized drug product 6 months at 25° C./60% RH), 7.3 nm and 7.2 nm; in data set [3] (reconstituted solution, lyophilized drug product, initial), 8.6 nm and 7.7 nm and 6.9 nm; in data set [3] (solutions prior to lyophilization) it was 7.6 nm and 7.4 nm and 7.9 nm.

(Values after patent US6906042B2, “Micelles” (Eisai Co., Ltd., priority 2000, dated 2005).)
